Reference: patent publication US20220024921A1, “1,3,4-OXADIAZOLONE COMPOUND AND PHARMACEUTICAL” (NIPPON SHINYAKU CO., LTD., priority 2018, published 2022)

Experiments:
[1] = system: graft-versus-host disease model CB6F1 mice; test: Lymphocyte proliferation inhibitory effect using graft-versus-host disease model animals (splenomegaly formation); assay type: in vivo; settings: Mus musculus, 240 h, oral, twice a day for 10 days, GVHD model CB6F1 mice, read-out: Inhibition rate (%) (splenomegaly formation); for inhibition in vivo at 20 mg/kg: single dose 20 mg/kg
[2] = biological target: PIM1 transgenic cells (Ba/F3) (Homo sapiens, UniProt P11309); test: Proliferation inhibitory effect on PIM1 transgenic cells; assay type: cell-based, mouse; settings: proliferation inhibition, 72 hours, Cell Counting Kit-8, read-out: PIM1 IC50
Sequence of PIM1 transgenic cells (Ba/F3) (P11309 whole entry, stated change not applied): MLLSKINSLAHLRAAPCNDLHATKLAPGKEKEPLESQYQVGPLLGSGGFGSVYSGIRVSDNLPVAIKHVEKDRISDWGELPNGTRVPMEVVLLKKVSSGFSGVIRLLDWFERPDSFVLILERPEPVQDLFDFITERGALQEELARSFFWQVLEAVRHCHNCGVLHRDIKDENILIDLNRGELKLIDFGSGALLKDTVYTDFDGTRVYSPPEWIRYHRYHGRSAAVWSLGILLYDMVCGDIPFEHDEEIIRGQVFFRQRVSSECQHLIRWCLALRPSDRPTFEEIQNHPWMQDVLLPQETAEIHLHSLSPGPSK
Summary of the method: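 Mouse Ba/F3 pro-B cells were retrovirally transduced with human PIM1 so that their proliferation depends on PIM1. Cells were treated with compound at 1–10000 nM final for 72 h, then read by CCK-8 (OD450−OD650). Inhibition was set against DMSO (0%) and no-cell blank (100%), and IC50 was obtained by two-parameter logistic regression.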

[3] = biological target: T1, PIM1 serine/threonine kinase (Homo sapiens, UniProt P11309); test: PIM1 serine/threonine kinase inhibitory effect; assay type: biochemical; settings: PIM1 serine/threonine kinase activity; ATP 40 μM; 30° C., 30 minutes
T1 construct: purchased Carna Bioscience, Inc
T1 sequence (P11309 whole entry): as the sequence (P11309 whole entry, stated change not applied) above
Summary of the method: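 Recombinant PIM1 (0.15 μg/ml final) with 0.5 μM biotinylated substrate and 40 μM ATP in pH 7.0 HEPES/MgCl2 buffer, 30 min at 30° C. Compound range was 0.01–10000 nM final, n=2. HTRF detection with streptavidin-XL665 and anti-phospho antibody-cryptate, 1 h; IC50 from non-linear regression of the 665/620 ratio.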

Structure (SMILES) | inhibition in vivo at 6 mg/kg ([1]; single dose 6 mg/kg) | inhibition in vivo at 20 mg/kg [1] | GI50 [2] | IC50 [3] | inhibition in vivo at 10 mg/kg ([1]; single dose 10 mg/kg)
C[C@H](Nc1cc(-c2n[nH]c(=O)o2)cc(F)c1C(F)(F)F)C1CCNCC1.Cl [Example 75, 5-[3-fluoro-5-{[(1S)-1-(piperidin-4-yl)ethyl]amino}-4-(trifluoromethyl)phenyl]-1,3,4-oxadiazol-2(3H)-one hydrochloride] | 21.7% | 27.1% | 24 nM | 1.4 nM | –
C[C@H](Nc1cc(-c2n[nH]c(=O)o2)cc(F)c1OC(F)(F)F)C1CCNCC1.Cl [Example 202, 5-[3-fluoro-5-{[(1S)-1-(piperidin-4-yl)ethyl]amino}-4-(trifluoromethoxy)phenyl]-1,3,4-oxadiazol-2(3H)-one hydrochloride] | – | 33.5% | 26 nM | 1.5 nM | 28.4%
